# Results reported in patent publication EP4759810A1, “PROTAC TARGETING BCL-XL PROTEIN AND USE THEREOF” (BEIJING SUNCELL BIO-MEDICAL CO., LTD., priority 2023, dated 2025).
# Where two headings read alike, the source gives them in different places.
# Columns and labels:
# [1] = test system: Molt-4 cells; experiment: Detection of E3 enzyme-dependence: Molt-4 cell killing with or without pomalidomide (CCK-8); assay type: cell-based; conditions: 10 µM pomalidomide, Figure 2
# [2] = test system: platelets; experiment: In vivo platelet toxicity test in mice
# Description: The in vivo platelet toxicity test was performed by using 5-6 week old female C57BL/6J mice. The C57BL/6J mice were purchased from Beijing Vital River Laboratory Animal Technology Co., Ltd. and housed under specific pathogen-free (SPF) conditions, with a 12-hour light/12-hour dark cycle, and free access to food and water. […] Different doses of the molecules to be tested (e.g., 0.1, 0.5, 2.5 mg/kg or 2, 5, 20 mg/kg) were prepared in advance with the aforementioned vehicle, and administered to mice via intraperitoneal injection at a volume of 200 µL for each mouse. After administration was completed, approximately 50 µL of blood was collected from each mouse at different time points via the intra-canthus sampling method into EDTA anticoagulant tubes (RAM Scientific), then a routine analysis of blood was performed by using a hematology analyzer, and the platelets was counted.
# [3] = test system: Molt-4 cells; experiment: Molt-4 cell killing activity test (CCK-8); assay type: cell-based; conditions: for EC50: Homo sapiens
# Outline: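 Molt-4 cells in RPMI-1640 with 10% FBS were exposed to compounds at 0.001–3 µM final, triplicate wells, for three days at 37°C. Viability was read by CCK-8 absorbance at 450 nm after 0.5–2 h, expressed relative to blank control.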
# [4] = target: T1, Bcl-xL protein (Homo sapiens, UniProt Q07817); experiment: Degradation experiment of Bcl-xL target protein (Western blot in Molt-4 cells); assay type: cell-based; conditions: 100 nM, 0, 2, 6, 16 h, GAPDH internal control, Figure 4
# T1 construct: host or cells: Molt-4 cells
# T1 sequence (Q07817 whole entry): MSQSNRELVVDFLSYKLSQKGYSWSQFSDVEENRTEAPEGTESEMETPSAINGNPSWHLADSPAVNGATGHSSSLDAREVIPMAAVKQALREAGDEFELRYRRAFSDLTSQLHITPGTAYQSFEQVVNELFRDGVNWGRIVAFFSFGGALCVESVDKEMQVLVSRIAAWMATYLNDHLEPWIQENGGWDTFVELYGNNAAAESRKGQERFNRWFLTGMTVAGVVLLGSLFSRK
# Description: Actively growing and healthy Molt-4 cells were subcultured into a fresh RPMI-1640 medium containing 10% fetal bovine serum, and each PROTAC molecule was added thereto at a final concentration of 100 nM. After drug treatment for the specified times (0, 2, 6, and 16 hours), the cells were collected, the supernatant was discarded by centrifugation, and the cells were washed twice with pre-cooled PBS buffer. Total protein was extracted with a lysis buffer (Servicebio, G2002-100ML), and the protein concentration was normalized by using a BCA protein quantification kit (Servicebio, G2026). Protein samples were mixed with a protein-loading buffer and incubated at 95°C for 5 minutes. Western blotting experiments were performed by using the following antibodies: Bcl-xL (Abcam, catalog number ab32370), diluted at 1:500; GAPDH antibody (Servicebio, catalog number GB15004), diluted at 1:1000; and horseradish peroxidase-conjugated goat anti-rabbit secondary antibody (Servicebio, catalog number GB23303), diluted at 1:5000.
# [5] = 72 h, Molt-4 cells, three days, CCK-8, read-out: EC50 (Molt-4)
# [6] = Bcl-xL-positive Molt-4 cells, read-out: cellular activity / killing activity (Molt-4 cells)
SMILES,cell killing activity after addition of pomalidomide (+poma) compared to without (-poma) [1],"platelet number ([2]; intraperitoneal, three tested dose groups 0.1, 0.5, and 2.5 mg/kg, Figure 5A)","killing Molt-4 cells at different concentrations (Figure 1), in words ([3]; Figure 1, 0.001-3 µM, comparison with control molecules)","EC50 [3, 5]","EC50 [3, 6]",degradation of the Bcl-xL protein [4],"platelet number in peripheral blood, in words ([2]; intraperitoneal, 5 mg/kg, Figure 5B)","platelet number at the highest dose ([2]; intraperitoneal, 20 mg/kg, decrease lower than A-1331852 at 2 mg/kg, Figure 5C)","platelet toxicity compared to A-1331852 at equivalent doses ([2]; intraperitoneal, 2, 5, and 20 mg/kg, Figure 5C)"
O=C1CCC(N2C(=O)c3cccc(NCCN4CCC(CN5CCN(CC#Cc6ccc(OCCCc7ccc(N8CCc9cccc(C(=O)Nc%10nc%11ccccc%11s%10)c9C8)nc7C(=O)O)c(F)c6)CC5)CC4)c3C2=O)C(=O)N1 (stereo not shown) [APQ2],significantly reduced cell killing activity,no significant decrease in platelet number,comparable to A-1331852,< 10 nM,< 10 nM,had the ability to degrade the Bcl-xL protein,,,
O=C1CCN(c2ccc(N3CCC(CN4CCN(CC#Cc5ccc(OCCCc6ccc(N7CCc8cccc(C(=O)Nc9nc%10ccccc%10s9)c8C7)nc6C(=O)O)c(F)c5)CC4)CC3)cc2)C(=O)N1 [APQ10],significantly reduced cell killing activity,,,< 10 nM,< 10 nM,had the ability to degrade the Bcl-xL protein,slightly decrease in platelet number,significant decrease in the platelet number,lower platelet toxicity
